This is an account of results in patent US20150140043A1, “IMMUNOMODULATORY METHODS USING NOTCH AGONISTS” (INSTITUT NATIONAL DE LA SANTE DE LA RECHERCHE MEDICAL …, priority 2012, published 2015).

Type in all cases: cell-based, human
Assay [1] concerns TGF-βRII protein expression. Put plainly: Surface staining / flow cytometry of TGF-βRII protein on CD4+CD25- T cells. To be noted: CD4+CD25- T cells incubated 48 hours with ligand. The method, then:
FIG. 3: TGF-βRII expression on effector T cells after NOTCH ligands exposure • A) CD4^+CD25^−T cells were purified using Miltenyi microbeads from PBMC and cultured for 3 hours in coated wells with anti-CD3 (200 ng/ml) and NOTCH ligands (5 μg/ml) or IgG control (5 μg/ml). Quantitative real-time PCR was performed to measure the transcripts levels of TGF-βRII. Data shown are mean±SEM and are representative of 4 independent experiments. * indicates P<0.05. • B) Protein levels of TGF-βRII in CD4^+CD25^−T cells stimulated to DL-1, DL-4 and Jagged-1 using FACS analysis. Mean of fluorescence are represented±SEM. * indicates P<0.05.
For surface staining, the cells were harvested, washed twice and resuspended in 1% FCS buffer. The cells were stained with mAbs for CD4 (Beckman Coulter), TGF-βRII (R&D) as per manufacturer's instructions for 20 min at 4° C. Cells were then analyzed by flow cytometry using FACScalibur™ and CellQuest™ software (Becton Dickinson, San Jose, Calif., USA).
TGF-βRII protein expression was assessed by flow cytometry. In these experiments, effector CD4^+CD25^− T cells were isolated and incubated for 48 hours in the presence of NOTCH ligands or IgG control.
On the technique in general: A flow cytometer gives signals particle by particle.

The test system of assay [2] is CD4+CD25- T cell proliferation. Nature of the assay: Sensitization of CD4+CD25- T cells to low-dose TGF-β (anti-CD3 plus NOTCH ligands, no Treg). Conditions: anti-CD3 plus ligand (5 μg/ml), TGF-β 0.1 ng/ml, 5 days. As for the experimental part:
FIG. 2: NOTCH suppresses the proliferation of CD4^+CD25^− T cells through TGF-β • A) CD4^+CD25^−T cells were cultured for 5 days in coated wells with anti-CD3 and NOTCH ligands (5 μg/ml) or IgG control (5 μg/ml) in the presence of Treg at ratio 1:16. Anti-TGF-β or IgG control mAbs (2.5 μg/ml) were added at the beginning of the co-culture. The data represent the mean±SEM. * indicates P<0.05. • B) CD4^+CD25^−T cells were cultured for 5 days in coated wells with anti-CD3 and NOTCH ligands (5 μg/ml) or IgG control (5 μg/ml). Low dose of TGF-β (0.1 ng/ml) was added. The data represent the mean±SEM.
Peripheral blood mononuclear cells were separated by Ficoll-Hypaque centrifugation (Amersham Biosciences) from buffy coats obtained from healthy blood donors (EFS, Créteil). CD4^+ CD25^− T cells and CD4^+CD25^high T cells were isolated using a CD4^+ T cell enrichment column and a human CD4^+CD25^+ Treg isolation kit purchased from Miltenyi Biotec. CD4^+CD25^− cells and CD4^+CD25^+ cells were enriched to greater than 95% purity. Cells were plated in media at a concentration of 1.25×10^5 to 5×10^5 cells per ml in a 96-well round-bottom plates coated with 1 μg/ml of anti-CD3 (UCHT1) and 5 μg/ml of NOTCH Ligand (DL-1-Fc, DL-4-Fc and Jagged-1-Fc are a generous Gift from Dr. Sakano). […]

The test system of assay [3] is CD4+CD25- T cell proliferation. Put plainly: Sensitizing assay: cells pre-incubated with NOTCH ligands, washed, then cultured with anti-CD3 with or without Treg. To be noted: for Percentage of inhibition of cell proliferation by Treg: CD4+CD25- T cells pre-exposed overnight to ligand (5 μg/ml), Treg ratio 1:8, 5 days anti-CD3, mean of 4 experiments; for Effect of exposure of Treg to ligand on Treg capacity to suppress CD4+CD25- proliferation: Treg exposed to ligand, anti-CD3 mAbs, data not shown. As for the experimental part:
FIG. 1: NOTCH signalling is involved in Treg mediated inhibition of anti-CD3 stimulated CD4^+CD25^− T cell proliferation • A) Various ratio of CD4^+CD25^− T cells and CD4^+CD25^high T cells were cultured for 5 days in coated wells with anti-CD3 (1 μg/ml) in the presence or not of inhibitor of g-secretase (GSI 10 μM). Percentages of inhibition were calculated from the raw data using the equations: 1—(mean cpm of co-culture wells divided by mean cpm of CD4^+CD25^− cells cultured alone)×100. The data represent the mean±SEM and are representative of 5 independent experiments. * indicates P<0.05. • B) CD4^+CD25^−T cells were cultured for 18 hours in coated wells with anti-CD3 and NOTCH ligands (5 μg/ml) or IgG control (5 μg/ml). Then, T cells were washed and incubated for 5 days in coated wells with anti-CD3 in the absence or presence of Treg at ratio 1:8. The data represent the mean±SEM of inhibition of T cell proliferation of 5 independent experiments.
Peripheral blood mononuclear cells were separated by Ficoll-Hypaque centrifugation (Amersham Biosciences) from buffy coats obtained from healthy blood donors (EFS, Créteil). CD4^+ CD25^− T cells and CD4^+CD25^high T cells were isolated using a CD4^+ T cell enrichment column and a human CD4^+CD25^+ Treg isolation kit purchased from Miltenyi Biotec. CD4^+CD25^− cells and CD4^+CD25^+ cells were enriched to greater than 95% purity. Cells were plated in media at a concentration of 1.25×10^5 to 5×10^5 cells per ml in a 96-well round-bottom plates coated with 1 μg/ml of anti-CD3 (UCHT1) and 5 μg/ml of NOTCH Ligand (DL-1-Fc, DL-4-Fc and Jagged-1-Fc are a generous Gift from Dr. Sakano).
A total of 2.5×10^4 CD4^+CD25^− T cells were cultured with various ratios of CD4^+CD25^high cells and 1 μg/ml of anti-CD3 for 5 days, in the presence or absence of 10 μm of the gamma-secretase inhibitor Compound E. A total of […] [^3H] thymidine (Amersham Pharmacia) was added to the wells during the last 16 hours of culture. The cells were then harvested and assessed for [^3H] thymidine incorporation using a liquid scintillation counter. Results were expressed as mean cpm of quadriplicate culture wells.
Percentage of inhibition was calculated as follows: 1−(mean cpm of co-culture wells divided by mean cpm of CD4^+CD25^− cells cultured alone)×100.
In sensitizing assays CD4^+CD25^− and CD4^+CD25^high were pre-incubated during 16 hours on coated NOTCH Ligand. Cells were also collected, washed and incubated alone or with Treg and stimulated as described above. Some experiments were performed in the presence of anti-TGF-β or IgG control (2.5 μg/ml). […]

On to “Jagged-1: recombinant NOTCH ligand Jagged-1, used coated as Jagged-1-Fc (SEQ ID NO: 5)”, for which, in assay [1], the “TGF-βRII protein expression (MFI)” value amounted to 130. For the same molecule, in assay [2], the “Percentage of inhibition of proliferation in the presence of TGF-β” value is 87.8%. Further, in assay [3], the “Percentage of inhibition of cell proliferation by Treg” value was 65% and the “Effect of exposure of Treg to ligand on Treg capacity to suppress CD4+CD25- proliferation” value is reported as “did not modify the Treg capacity”.

B1: DL-1: recombinant NOTCH ligand Delta-like 1, used coated as DL-1-Fc (SEQ ID NO: 8) (protein, listed as Homo sapiens)
chain: MGSRCALALAVLSALLCQVWSSGVFELKLQEFVNKKGLLGNRNCCRGGAGPPPCACRTFFRVCLKHYQASVSPEPPCTYGSAVTPVLGVDSFSLPDGGGADSAFSNPIRFPFGFTWPGTFSLIIEALHTDSPDDLATENPERLISRLATQRHLTVGEEWSQDLHSSGRTDLKYSYRFVCDEHYYGEGCSVFCRPRDDAFGHFTCGERGEKVCNPGWKGPYCTEPICLPGCDEQHGFCDKPGECKCRVGWQGRYCDECIRYPGCLHGTCQQPWQCNCQEGWGGLFCNQDLNYCTHHKPCKNGATCTNTGQGSYTCSCRPGYTGATCELGIDECDPSPCKNGGSCTDLENSYSCTCPPGFYGKICELSAMTCADGPCFNGGRCSDSPDGGYSCRCPVGYSGFNCEKKIDYCSSSPCSNGAKCVDLGDAYLCRCQAGFSGRHCDDNVDDCASSPCANGGTCRDGVNDFSCTCPPGYTGRNCSAPVSRCEHAPCHNGATCHERGHRYVCECARGYGGPNCQFLLPELPPGPAVVDLTEKLEGQGGPFPWVAVCAGVILVLMLLLGCAAVVVCVRLRLQKHRPPADPCRGETETMNNLANCQREKDISVSIIGATQIKNTNKKADFHGDHSADKNGFKARYPAVDYNLVQDLKGDDTAVRDAHSKRDTKCQPQGSSGEEKGTPTTLRGGEASERKRPDSGCSTSKDTKYQSVYVISEEKDECVIATEV
For the molecule B1, the “TGF-βRII protein expression (MFI)” value in assay [1] was found to be 85. In addition, the “Percentage of inhibition of proliferation in the presence of TGF-β” value in assay [2] amounted to 42.9%. Moreover, in assay [3], the “Percentage of inhibition of cell proliferation by Treg” value turned out to be 64.8% and the “Effect of exposure of Treg to ligand on Treg capacity to suppress CD4+CD25- proliferation” value is on record as “did not modify the Treg capacity”.
